Earlier results as cited in patent publication US5565430A, “Azaaspartic acid analogs as interleukin-1β converting enzyme inhibitors” (Sterling Winthrop Inc., priority 1994, dated 1996).

B1: Soluble IL-1 receptor: Soluble IL-1 receptor (protein, UniProt P14778 18-336, looked up)
extracellular domain: LEADKCKEREEKIILVSSANEIDVRPCPLNPNEHKGTITWYKDDSKTPVSTEQASRIHQHKEKLWFVPAKVEDSGHYYCVVRNSSYCLRIKISAKFVENEPNLCYNAQAIFKQKLPVAGDGGLVCPYMEFFKNENNELPKLQWYKDCKPLLLDNIHFSGVKDRLIVMNVAEKHRGNYTCHASYTYLGKQYPITRVIEFITLEENKPTRPVIVSPANETMEVDLGSQIQLICNVTGQLSDIAYWKWNGSVIDEDDPVLGEDYYSVENPANKRRSTLITVLNISEIESRFYKHPFTCFAKNTHGIDAAYIQLIYPVTNFQK
modifications: extracellular domain

Columns and labels:
[1] = test system: rabbit immune complex colitis; settings: animal model of colitis
[2] = test system: PG-APS model of arthritis in rats
[3] = test system: patients with rheumatoid arthritis; settings: subcutaneous, open-label
[4] = test system: chronic myelogenous leukemia cells; settings: cells removed from leukemia patients
[5] = test system: patients with active rheumatoid arthritis; settings: subcutaneous, after three weeks of daily treatment
allergic subjects = settings: randomized, double-blind, placebo-controlled

| Molecule | tissue necrosis and inflammatory cells in colon [1] | joint swelling [2] | efficacy in rheumatoid arthritis trial [3] | colony growth of leukemia cells [4] | antiinflammatory activity in rheumatoid arthritis patients [5] | cutaneous late-phase allergic reaction (allergic subjects) |
| --- | --- | --- | --- | --- | --- | --- |
| IL-1ra: IL-1 receptor antagonist, naturally occurring | reduced tissue necrosis and the number of inflammatory cells in the colon | supresses joint swelling | shows efficacy | inhibit colony growth |  |  |
| Antril: The IL-1 receptor antagonist, Antril (Synergen) |  |  |  |  | decrease in joint swelling and less disease activity |  |
| B1 |  |  |  | inhibit colony growth |  | significantly reduces clinically the cutaneous late-phase allergic reaction |
